Source: US20160166637A1, “METHODS OF TREATING A CANCER THROUGH TARGETED DISRUPTION OF ALPHA CONNEXIN 43-ZONULA OCCLUDENS-1 (ZO-1) INTERACTION” (Virginia Tech Intellectual Properties, Inc., priority 2013, published 2016)

Assays:
[1] = target: T1, Cx43 CT (Homo sapiens, UniProt P17302); assay: EDAC cross-linking of ACT-1 and Cx43 carboxy terminal peptide (polyacrylamide gel); format: binding
T1 construct: EDAC cross-linking reaction of ACT-1 and connectin 43 carboxy terminal peptide
Description: FIG. 6 is an image of a polyacrylamide gel showing EDAC cross-linking of ACT-1 and Cx43-CT.
FIG. 6 is an image of a polyacrylamide gel showing EDAC cross-linking reaction of ACT-1 and connectin 43 carboxy terminal peptide. […] ACT-1 is shown by the zero order cross-linker EDAC.

[2] = system: U87MG glioma cells; assay: Cell aggregation assay, aggregation index (AI); format: cell-based, human; conditions: 25 μM, 48 hours, serum-free
Procedure: UM87MG glioma cells, which express Cx43, were cultured in serum-free conditions permissive to aggregation. The cells were treated with the ACT-1 peptide for 48 hours and then imaged with phase-contrast microscopy. […] To quantitate the extent of aggregation, ImageJ software was used to collect size information about the aggregates in these images and from that information an aggregation index was calculated for each image. The AI is defined as the total area of aggregation in a field divided by the number of single, unaggregated cells in that field. So an increase in the ratio of aggregation area to unaggregated cells would increase the AI and indicate a higher propensity to aggregate.

[3] = system: Cx-deficient C6 glioma cell line; assay: Cell aggregation assay on Cx-deficient cells; format: cell-based; conditions: 1 μM and 25 μM compared
[4] = system: U87 glioma cells; assay: Boyden chamber motility assay (Example 3); format: cell-based, human; conditions: overnight pre-treatment in 10% serum, 4 hour incubation; vs no treatment and control peptide
Procedure: After an overnight peptide pre-treatment in 10% serum, two glioma cell lines, c6 and U87, were seeded in serum-free media containing peptides into Boyden chamber transwell inserts with 8 μm pores in the membrane and then filled the bottom wells with media containing 10% FBS as a chemoattractant. […] Then the migrated cells were fixed, stained with Hoescht dye, and imaged on an epifluorescence microscope.

[5] = system: C6 cells stably expressing Cx43; assay: Boyden chamber motility assay (Example 4, serum-free pre-treatment); format: cell-based; conditions: both concentrations of ACT-1 (1 μM, 25 μM); 24 hours serum-free pre-treatment, 4 hours
Procedure: FIGS. 10A-10C are images of a motility experiment using C6 cells stably expressing Cx43 showing no treatment (FIG. 10A), 25 μM reverse sequence peptide (control peptide) (FIG. 10B) and 25 μM ACT-1 (FIG. 10C).
FIG. 10D is a graph showing the results of the motility experiment using C6 cells stably expressing Cx43 showing no treatment, 1 μM ACT-1, 25 μM ACT-1, 1 μM reverse sequence peptide (control peptide), and 25 μM reverse sequence peptide (control peptide).
(§1) In this example, peptides were added after cells were incubated in serum-free media, then 24 hours of pre-treatment was allowed in the serum-free conditions, and finally the cells were transferred, without typsinizing, to Boyden chamber and incubated for 4 hours. […] With this example, the results of the C6 cells seemed to be similar to wt-C6 cells.

[6] = system: wild-type C6 cells; assay: Boyden chamber motility assay (Example 4) on wild-type cells; format: cell-based; conditions: both concentrations of ACT-1 (1 μM, 25 μM)
Procedure: as §1
The same situation was true when the same experiment was performed on wild-type C6 cells.

[7] = system: GS9-6 cells; assay: Viability of glioma stem cell line; format: cell-based, human; conditions: alone or in combination
Procedure: FIG. 13 is a graph showing the effects of ACT-1 treatment at concentrations from 30 to 120 μM on the viability of the glial stem cell (GSC) line GS9-6 with or without temozolomide.
The ACT-1 peptide was tested on a glioma stem cell (GSC) line alone or in combination with temozolomide (TMZ).

[8] = system: GS9-6 glioma stem cells; assay: Sphere/colony formation assay (self-renewal); format: cell-based, human; conditions: FIG. 15
Description: To further investigate the effect of ACT-1 on glioma stem cells, the present inventors measured the capacity of glioma stem cells to self-renew. The unique feature that makes glioma stem cells different from other glioma cells is that glioma stem cells are able to copy themselves (termed as self-renewal). The well-established approach to measure self-renewal of stem cells is sphere/colony formation assay. The self-renewal of GS9-6 glioma stem cells treated with ACT-1 was then monitored. […] Two different doses of ACT-1 and TMZ were tested. Both treatments inhibited the self-renewal of GS9-6 (FIGS. 16 and 17). Thus, the data strongly indicate that ACT-1 sensitizes glioblastoma cells to TMZ.

[9] = system: LN229/GSCs; assay: Glioma xenograft mouse model, tumor growth; format: in vivo, mice; conditions: 200 μM/tumor ACT-1, 100 mg/kg TMZ
Description: To further validate the therapeutic effect of ACT-1 in vivo, tumor growth was monitored using a glioma xenograft mouse model. As GS9-6 cells grow slowly in mice, the present inventors elected to use LN229/GSCs, isolated from LN229 human GBM cell line. […] LN229/GSCs were first injected into the flanks of immunocompromised mice and tumors (more than 100 mm3) were detected in all mice in 14 days. By contrast, GS9-6 cells form a tumor in 6 months (data not shown). Treatments at day 14 were then started. First, 100 mg/kg ACT-1 was injected subcutaneously. 24 hours later, mice were treated with 7.5 mg/kg TMZ (dissolved in DMSO) or vehicle DMSO intraperitoneally. Such treatment regime was repeated three times a week for three weeks, and tumor growth was monitored for another week. […] Taken together, these examples provide a firm support for potential clinical application of ACT-1 in treating human or canine glioblastoma patients.
FIG. 21 is a plot of tumor volume over 53 days for untreated, 200 μM/tumor ACT-1, 100 mg/kg TMZ treated, and combinatorial 200 μM/tumor ACT-1 and 100 mg/kg TMZ treated mice. FIG. 22 is a graph of tumor volumes at 53 days and FIG. 23 is an image of tumor volumes at 53 days for these treatments.

[10] = in vivo; cited from earlier work
[11] = target: Cx43 CT domain (Homo sapiens, UniProt P17302); assay: Dot blot binding of biotinylated AAP10 peptides to Cx43 CT; conditions: biotinylated peptide, 500-1 ng
Description: FIG. 5 is an image showing the results of a dot blot assay for testing binding of AAP10 and AAP10-pTyr with Connexin43-carboxy terminus (CT).
By contrast, the tyrosine phosphorylated isoform biotinylated AAP10-pTyr show no affinity for Cx43 CT.

[12] = taken orally; cited from earlier work
[13] = system: GBM cells; conditions: cited from earlier work
[14] = phase I, brain cancer patients; cited from earlier work

T1 sequence (P17302 229-382 limits assumed): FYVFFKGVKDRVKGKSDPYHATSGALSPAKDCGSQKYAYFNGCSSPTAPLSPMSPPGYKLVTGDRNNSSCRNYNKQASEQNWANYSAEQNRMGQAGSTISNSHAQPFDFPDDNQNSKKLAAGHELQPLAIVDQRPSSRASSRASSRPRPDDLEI
Sequence of Cx43 CT domain (P17302 229-382 limits assumed): as above

## ACT-1: SEQ ID NO:9: Antennapedia sequence RQPKIWFPNRRKPWKK linked to Cx43 c-terminal 9 amino acids RPRPDDLEI (RQPKIWFPNRRKPWKKRPRPDDLEI)
[1]; EDAC cross-linking
  effect of binding on Cx43 CT homodimers: reduces Cx43 CT homodimers
[1]; zero order cross-linker EDAC
  interaction with the Cx43 CT (EDAC cross-linking): interacts with the Cx43 CT
[2]
  formation of amorphous clumps (phase-contrast images): tended to form amorphous clumps
[2]; Bonferroni t-test
  aggregation index (AI): significantly higher AIs relative to controls
[3]
  aggregation versus controls: no significant difference in aggregation
[4]
  cell migration across the Boyden chamber membrane: significant decrease in cell migration
[5]
  decrease in migration: 5 ×
[6]
  decrease in motility across the Boyden chamber: ~5 ×
[7]
  viability of GS9-6 cells: only mildly reduced the viability
[8]
  self-renewal of GS9-6 cells: not affected
[9]
  tumor volume at 53 days: may promote tumor growth
[10]
  half-life in the body: less than a few hours

## antiarrhythmic peptide 10 [AAP10]
[11]
  affinity for the Cx43 CT domain in a dot blot: concentration dependent affinity

## C[C@H]1c2cccc(O)c2C(=O)C2=C(O)[C@]3(O)C(=O)C(C(N)=O)=C(O)[C@@H](N(C)C)[C@@H]3[C@@H](O)[C@@H]21 [Doxycycline]
[12]
  CSF to serum ratio: ~0.26

## CC#C[C@]1(O)CC[C@H]2[C@@H]3CCC4=CC(=O)CCC4=C3[C@@H](c3ccc(N(C)C)cc3)C[C@@]21C [mifepristone]
[13]
  sensitization of GBM cells to TMZ: sensitizes GBM cells to TMZ

## cintredekin besudotox
[14]
  adverse effects: no significant adverse effects were observed
